Broadly, the IC50 is the concentration that inhibits the measured activity by half.

Results on 22 molecules are retold here after patent US10570149B2, “Tricyclic heterocylic derivatives” (MERCK PATENT GMBH, priority 2016, dated 2020).

T1 sequence (Q13535 whole entry): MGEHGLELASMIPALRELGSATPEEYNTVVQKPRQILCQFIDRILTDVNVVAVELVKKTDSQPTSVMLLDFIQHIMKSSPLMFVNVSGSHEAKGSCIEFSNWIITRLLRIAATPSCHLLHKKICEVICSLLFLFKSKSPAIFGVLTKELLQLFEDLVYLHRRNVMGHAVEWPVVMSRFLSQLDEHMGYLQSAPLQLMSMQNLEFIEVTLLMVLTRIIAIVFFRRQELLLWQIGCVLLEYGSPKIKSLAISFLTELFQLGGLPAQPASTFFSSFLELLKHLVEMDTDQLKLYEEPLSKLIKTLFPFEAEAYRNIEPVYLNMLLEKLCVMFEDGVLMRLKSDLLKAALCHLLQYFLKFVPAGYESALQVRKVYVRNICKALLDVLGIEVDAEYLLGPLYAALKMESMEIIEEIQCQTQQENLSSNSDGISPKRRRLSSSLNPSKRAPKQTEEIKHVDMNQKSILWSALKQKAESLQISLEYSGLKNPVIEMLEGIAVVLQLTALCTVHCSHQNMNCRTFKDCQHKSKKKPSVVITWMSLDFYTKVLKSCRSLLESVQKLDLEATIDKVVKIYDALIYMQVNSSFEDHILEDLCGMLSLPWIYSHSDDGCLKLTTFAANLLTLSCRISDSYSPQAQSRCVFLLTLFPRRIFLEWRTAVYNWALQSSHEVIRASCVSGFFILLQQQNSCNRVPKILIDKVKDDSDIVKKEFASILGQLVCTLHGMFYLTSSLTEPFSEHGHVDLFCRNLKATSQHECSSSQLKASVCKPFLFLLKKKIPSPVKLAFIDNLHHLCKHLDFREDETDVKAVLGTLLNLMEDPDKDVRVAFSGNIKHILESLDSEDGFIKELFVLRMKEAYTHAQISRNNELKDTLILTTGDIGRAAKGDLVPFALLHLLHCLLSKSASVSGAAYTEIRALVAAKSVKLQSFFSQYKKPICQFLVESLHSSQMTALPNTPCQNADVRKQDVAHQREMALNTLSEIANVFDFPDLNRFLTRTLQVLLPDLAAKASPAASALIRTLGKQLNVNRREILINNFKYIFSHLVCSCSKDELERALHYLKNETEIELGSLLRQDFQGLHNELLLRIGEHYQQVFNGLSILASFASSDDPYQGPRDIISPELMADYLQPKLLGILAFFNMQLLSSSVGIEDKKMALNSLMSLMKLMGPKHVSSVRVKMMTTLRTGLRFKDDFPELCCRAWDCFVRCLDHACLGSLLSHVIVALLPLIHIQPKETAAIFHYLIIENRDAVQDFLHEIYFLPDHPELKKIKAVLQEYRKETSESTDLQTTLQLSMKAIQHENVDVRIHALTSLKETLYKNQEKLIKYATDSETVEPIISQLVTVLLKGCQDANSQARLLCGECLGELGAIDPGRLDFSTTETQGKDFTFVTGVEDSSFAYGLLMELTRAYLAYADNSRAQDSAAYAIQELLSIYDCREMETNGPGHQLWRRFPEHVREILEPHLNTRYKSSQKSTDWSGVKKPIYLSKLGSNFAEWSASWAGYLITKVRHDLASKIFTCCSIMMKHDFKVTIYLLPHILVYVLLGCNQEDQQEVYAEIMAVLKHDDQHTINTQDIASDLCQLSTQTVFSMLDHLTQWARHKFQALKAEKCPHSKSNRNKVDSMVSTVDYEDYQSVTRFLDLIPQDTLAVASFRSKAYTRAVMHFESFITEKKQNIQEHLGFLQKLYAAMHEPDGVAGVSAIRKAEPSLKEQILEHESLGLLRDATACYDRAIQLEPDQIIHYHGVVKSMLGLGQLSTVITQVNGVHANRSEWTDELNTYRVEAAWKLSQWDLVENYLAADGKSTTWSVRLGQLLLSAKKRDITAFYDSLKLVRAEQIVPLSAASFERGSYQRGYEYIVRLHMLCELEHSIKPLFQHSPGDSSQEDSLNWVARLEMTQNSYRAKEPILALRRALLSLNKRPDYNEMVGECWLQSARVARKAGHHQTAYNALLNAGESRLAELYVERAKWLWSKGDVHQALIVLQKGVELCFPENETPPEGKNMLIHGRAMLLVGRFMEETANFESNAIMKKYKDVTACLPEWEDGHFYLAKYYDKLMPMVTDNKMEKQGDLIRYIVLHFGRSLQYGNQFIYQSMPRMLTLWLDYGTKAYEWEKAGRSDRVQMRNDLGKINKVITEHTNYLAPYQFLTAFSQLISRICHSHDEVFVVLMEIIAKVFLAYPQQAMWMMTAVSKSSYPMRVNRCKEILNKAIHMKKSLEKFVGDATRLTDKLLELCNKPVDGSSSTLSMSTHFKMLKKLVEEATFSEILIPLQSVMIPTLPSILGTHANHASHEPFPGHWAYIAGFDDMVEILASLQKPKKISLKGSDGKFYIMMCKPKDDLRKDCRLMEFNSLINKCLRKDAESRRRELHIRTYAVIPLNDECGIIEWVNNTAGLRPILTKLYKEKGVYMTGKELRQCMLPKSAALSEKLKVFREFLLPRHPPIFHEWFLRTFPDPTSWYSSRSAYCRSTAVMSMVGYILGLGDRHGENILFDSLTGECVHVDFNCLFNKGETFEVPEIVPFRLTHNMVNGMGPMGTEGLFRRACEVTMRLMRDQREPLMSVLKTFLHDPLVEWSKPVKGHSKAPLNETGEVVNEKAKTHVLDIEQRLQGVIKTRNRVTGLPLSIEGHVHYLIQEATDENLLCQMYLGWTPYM
T1 sequence (Q8WXE1 whole entry partner): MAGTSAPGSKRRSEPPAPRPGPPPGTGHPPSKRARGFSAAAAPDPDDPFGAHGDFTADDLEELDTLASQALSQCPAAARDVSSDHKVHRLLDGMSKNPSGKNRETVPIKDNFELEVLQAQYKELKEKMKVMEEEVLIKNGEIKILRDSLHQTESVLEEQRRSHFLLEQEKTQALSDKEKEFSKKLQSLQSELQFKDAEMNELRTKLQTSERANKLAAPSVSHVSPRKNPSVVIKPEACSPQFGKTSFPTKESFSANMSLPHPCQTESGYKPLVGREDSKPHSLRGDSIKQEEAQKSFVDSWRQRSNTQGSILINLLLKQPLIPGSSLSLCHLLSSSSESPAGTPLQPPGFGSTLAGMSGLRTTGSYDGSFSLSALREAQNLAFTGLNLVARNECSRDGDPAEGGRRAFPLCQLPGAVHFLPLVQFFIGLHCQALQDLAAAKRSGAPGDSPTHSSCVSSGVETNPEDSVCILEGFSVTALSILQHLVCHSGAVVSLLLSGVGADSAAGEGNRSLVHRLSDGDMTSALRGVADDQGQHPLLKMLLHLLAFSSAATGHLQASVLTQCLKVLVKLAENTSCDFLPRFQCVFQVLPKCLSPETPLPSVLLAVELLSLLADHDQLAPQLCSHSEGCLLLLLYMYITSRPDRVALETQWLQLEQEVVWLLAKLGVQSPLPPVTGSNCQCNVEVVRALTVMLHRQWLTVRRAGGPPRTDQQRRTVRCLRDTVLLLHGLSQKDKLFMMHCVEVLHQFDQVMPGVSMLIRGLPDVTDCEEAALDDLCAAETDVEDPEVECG

This test addresses T1, ATR/ATRIP (Homo sapiens, UniProt Q13535).
T1 construct: human ATR, full length, GenBank ID: NM_001184.3; p53: Sf21 insect cells
The test is described as follows: ATR/ATRIP kinase assay (TR-FRET, p53 phosphorylation). The class given is biochemical. Particulars: Table 1, class symbols; read-out: ATR-ATRIP IC50. As for the experimental part:
ATR/ATRIP Kinase Assay—Measurement of ATR/ATRIP Inhibition
The IC50 value was determined by an ATR/ATRIP enzymatic assay. The assay comprises two steps: the enzymatic reaction and the detection step. First, a mixture of ATR/ATRIP protein (Ataxia Telangiectasia and Rad3-related protein/ATR interacting protein), the compound in question at different concentrations, p53 as substrate protein and adenosine triphosphate (ATP) are incubated in assay buffer. ATR phosphorylates p53 at Ser15 and other residues. The amount of phosphorylated p53 is then detected using specific antibodies and the TR-FRET assay technology.
In detail: The ATR/ATRIP enzymatic assay is performed as a TR-FRET-(HTRF™, Cisbio Bioassays) based 384-well assay. In a first step, purified human recombinant ATR/ATRIP (human ATR, full length, GenBank ID: NM_001184.3, and human ATRIP, full length, GenBank ID AF451323.1, co-expressed in a mammalian cell line) is incubated in assay buffer for 15 minutes at 22° C. with test compound at different concentrations or without test compound (as a negative control). The assay buffer contains 25 mM HEPES pH 8.0, 10 mM Mg(CH3COO)2, 1 mM MnCl2, 0.1% BSA, 0.01% Brij® 35, and 5 mM dithiothreitol (DTT). […] Then, in a second step, purified human recombinant cmyc-tagged p53 (human p53, full length, GenBank ID: BC003596, expressed in Sf21 insect cells) and ATP are added and the reaction mixture is incubated for 25-35 minutes, typically 25 minutes, at 22° C. The pharmacologically relevant assay volume is 5 μl. The final concentrations in the assay during incubation of the reaction mixture are 0.3-0.5 nM, typically 0.3 nM, ATR/ATRIP, 50 nM p53, and 0.5 μM ATP. The enzymatic reaction is stopped by the addition of EDTA. […] Following signal development for 2 h the plates are analyzed in an EnVision (PerkinElmer) microplate reader using the TRF mode with laser excitation. […] Data are processed employing the Genedata Screener software. In particular, IC50 values are determined in the usual manner by fitting a dose-response curve to the data points using nonlinear regression analysis.
For orientation: Time-resolved FRET reads energy transfer from a long-lived donor to a nearby acceptor.
`C[C@@H]1COC[C@H]2COc3c(Cn4nncc4C(=O)O)nc(-c4ccnc5[nH]ccc45)nc3N21` [A2, 3-[(5R,8aS)-5-Methyl-3-(1H-pyrrolo[2,3-b]pyridin-4-yl)-5,6,8a,9-tetrahydro-8H-7,10-dioxa-2,4,4b-triaza-phenanthren-1-ylmethyl]-3H[1,2,3]triazole-4-carboxylic Acid]: the IC50 is 10 to 100 nM. Consider `CNc1nc2ccccc2n1-c1nc(Cn2nncc2C(=O)O)c2c(n1)N1[C@@H](COC[C@H]1C)CO2` [A3, 3-[(5R,8aS)-5-Methyl-3-(2-methylamino-benzoimidazol-1-yl)-5,6,8a,9-tetrahydro-8H-7,10-dioxa-2,4,4b-triaza-phenanthren-1-ylmethyl]-3H[1,2,3]triazole-4-carboxylic Acid], for which the IC50 fell in the range of 100 to 500 nM. Consider `C[C@@H]1COC[C@H]2COc3c(Cn4cc(C(=O)O)nn4)nc(-c4ccnc5[nH]ccc45)nc3N21` [A4, 1-[(5R,8aS)-5-Methyl-3-(1H-pyrrolo[2,3-b]pyridin-4-yl)-5,6,8a,9-tetrahydro-8H-7,10-dioxa-2,4,4b-triaza-phenanthren-1-ylmethyl]-1H-[1,2,3]triazole-4-carboxylic Acid], for which the half-inhibitory concentration (IC50) was 1 to 10 nM. Then `CNCc1c[nH]c2ncc(F)c(-c3nc4c(c(C(C)(C)O)n3)OC[C@@H]3COC[C@@H](C)N43)c12` [A5, 2-[(5R,8aS)-3-(5-Fluoro-3-methylaminomethyl-1H-pyrrolo[2,3-b]pyridin-4-yl)-5-methyl-5,6,8a,9-tetrahydro-8H-7,10-dioxa-2,4,4b-triaza-phenanthren-1-yl]-propan-2-ol], with 10 to 100 nM. The result for `C[C@@H]1COC[C@H]2COc3c(nc(N(C)c4nc5ccccc5[nH]4)nc3C(C)(C)O)N21` [A12, 2-{(5R,8aS)-3-[(1H-Benzimidazol-2-yl)-methyl-amino]-5-methyl-5,6,8a,9-tetrahydro-8H-7,10-dioxa-2,4,4b-triaza-phenanthren-1-yl}-propan-2-ol] reads 10 to 100 nM.

In the case of `CNc1nc2ccccc2n1-c1nc2c(c(C(C)(C)S(C)(=O)=O)n1)OC[C@H]1COC[C@H](C)N21` [A14, {1-[(5S,8aR)-1-(1-Methanesulfonyl-1-methyl-ethyl)-5-methyl-5,6,8a,9-tetrahydro-8H-7,10-dioxa-2,4,4b-triaza-phenanthren-3-yl]-1H-benzimidazol-2-yl}-methyl-amine], the IC50 was in the range of 10 to 100 nM. Take `C[C@@H]1COC[C@H]2COc3c(nc(N(C)c4nc5ccccc5[nH]4)nc3C(C)(C)S(C)(=O)=O)N21` [A16, (1H-Benzimidazol-2-yl)-[(5R,8aS)-1-(1-methanesulfonyl-1-methyl-ethyl)-5-methyl-5,6,8a,9-tetrahydro-8H-7,10-dioxa-2,4,4b-triaza-phenanthren-3-yl]-methyl-amine]: the IC50 is 10 to 100 nM.

For `CNc1nc2ccccc2n1-c1nc(Cn2cc(C(=O)O)nn2)c2c(n1)N1[C@@H](COC[C@H]1C)CO2` [A17, 1-[(5R,8aS)-5-Methyl-3-(2-methylamino-benzimidazol-1-yl)-5,6,8a,9-tetrahydro-8H-7,10-dioxa-2,4,4b-triaza-phenanthren-1-ylmethyl]-1H[1,2,3]triazole-4-carboxylic Acid], the IC50 was in the range of 100 to 500 nM. As for `COC(=O)c1cn(Cc2nc(-c3ccnc4[nH]ccc34)nc3c2OC[C@@H]2COC[C@@H](C)N32)nn1` [A18, 1-[(5R,8aS)-5-Methyl-3-(1H-pyrrolo[2,3-b]pyridin-4-yl)-5,6,8a,9-tetrahydro-8H-7,10-dioxa-2,4,4b-triaza-phenanthren-1-ylmethyl]-1H-[1,2,3]triazole-4-carboxylic Acid Methyl Ester], the IC50 is 1 to 10 nM. As to `COC(=O)c1cn(Cc2nc(-c3ccnc4c3ccn4C)nc3c2OC[C@@H]2COC[C@@H](C)N32)nn1` [A19, 1-[(5R,8aS)-5-Methyl-3-(1-methyl-1H-pyrrolo[2,3-b]pyridin-4-yl)-5,6,8a,9-tetrahydro-8H-7,10-dioxa-2,4,4b-triaza-phenanthren-1-ylmethyl]-1H[1,2,3]triazole-4-carboxylic Acid Methyl Ester], the IC50 was 100 to 500 nM. Then `CNc1nc2ccccc2n1-c1nc(Cn2cc(C(=O)OC)nn2)c2c(n1)N1[C@@H](COC[C@H]1C)CO2` [A22, 1-[(5R,8aS)-5-Methyl-3-(2-methylamino-benzoimidazol-1-yl)-5,6,8a,9-tetrahydro-8H-7,10-dioxa-2,4,4b-triaza-phenanthren-1-ylmethyl]-1H[1,2,3]triazole-4-carboxylic Acid Methyl Ester], with 10 to 100 nM; and `C[C@@H]1COC[C@H]2COc3c(nc(-c4c(F)ncc5c4ccn5C)nc3C(C)(C)S(C)(=O)=O)N21` [A38, (5R,8aS)-3-(5-fluoro-1-methyl-1H-pyrrolo[2,3-c]pyridin-4-yl)-1-(1-methanesulfonyl-1-methyl-ethyl)-5-methyl-5,6,8a,9-tetrahydro-8H-7,10-dioxa-2,4,4b-triaza-phenanthrene], with 500 to 30000 nM. As to `C[C@@H]1COC[C@H]2COc3c(nc(-c4cncc(CO)c4)nc3C(C)(C)S(C)(=O)=O)N21` [A40, {5-[(5R,8aS)-1-(1-methanesulfonyl-1-methyl-ethyl)-5-methyl-5,6,8a,9-tetrahydro-8H-7,10-dioxa-2,4,4b-triaza-phenanthren-3-yl]-pyridin-3-yl}-methanol], the IC50 is 1 to 10 nM. For the molecule `C[C@@H]1COC[C@H]2COc3c(nc(-c4cccc(CO)c4)nc3C(C)(C)S(C)(=O)=O)N21` [A41, {3-[(5R,8aS)-1-(1-methanesulfonyl-1-methyl-ethyl)-5-methyl-5,6,8a,9-tetrahydro-8H-7,10-dioxa-2,4,4b-triaza-phenanthren-3-yl]-phenyl}-methanol], the 50% inhibitory concentration (IC50) was under 1 nM. On to `CNc1ncn(-c2nc3c(c(C(C)(C)S(C)(=O)=O)n2)OC[C@@H]2COC[C@@H](C)N32)n1` [A43], for which the IC50 fell in the range of 100 to 500 nM. The result for `C[C@@H]1COC[C@H]2COc3c(nc(-c4ccc(CCN)cc4)nc3C(C)(C)S(C)(=O)=O)N21` [A45, 2-{4-[(4bS,6R)-1-(1-methanesulfonyl-1-methyl-ethyl)-5-methyl-5,6,8a,9-tetrahydro-8H-7,10-dioxa-2,4,4b-triaza-phenanthren-3-yl]-phenyl}-ethylamine] reads 10 to 100 nM.

With `C[C@@H]1COC[C@H]2COc3c(nc(C(=O)Nc4ccn[nH]4)nc3C(C)(C)S(C)(=O)=O)N21` [A47, (4bS,6R)-1-(1-methanesulfonyl-1-methyl-ethyl)-5-methyl-5,6,8a,9-tetrahydro-8H-7,10-dioxa-2,4,4b-triaza-phenanthrene-3-carboxylic Acid (2H-pyrazol-3-yl)-amide], the IC50 lay in the range of 500 to 30000 nM. Take `C[C@@H]1COC[C@H]2COc3c(nc(C(=O)N4CC[C@H](O)C4)nc3C(C)(C)S(C)(=O)=O)N21` [A48, ((S)-3-hydroxy-pyrrolidin-1-yl)-[(4bS,6R)-1-(1-methanesulfonyl-1-methyl-ethyl)-5-methyl-5,6,8a,9-tetrahydro-8H-7,10-dioxa-2,4,4b-triaza-phenanthren-3-yl]-methanone]: the IC50 lay within 500 to 30000 nM. `C[C@@H]1COC[C@H]2COc3c(nc(C(=O)N4CC[C@@H](O)C4)nc3C(C)(C)S(C)(=O)=O)N21` [A49, ((R)-3-hydroxy-pyrrolidin-1-yl)-[(4bS,6R)-1-(1-methanesulfonyl-1-methyl-ethyl)-5-methyl-5,6,8a,9-tetrahydro-8H-7,10-dioxa-2,4,4b-triaza-phenanthren-3-yl]-methanone]: the IC50 was in the range of 500 to 30000 nM.

Regarding `C[C@@H]1COC[C@H]2COc3c(nc(C(=O)N4CC[C@@H](N)C4)nc3C(C)(C)S(C)(=O)=O)N21` [A51, ((R)-3-amino-pyrrolidin-1-yl)-[(4bS,6R)-1-(1-methanesulfonyl-1-methyl-ethyl)-5-methyl-5,6,8a,9-tetrahydro-8H-7,10-dioxa-2,4,4b-triaza-phenanthren-3-yl]-methanone], the IC50 was 500 to 30000 nM. As to `C[C@@H]1COC[C@H]2COc3c(nc(C(=O)NC[C@@H](C)O)nc3C(C)(C)S(C)(=O)=O)N21` [A53, (4bS,6R)-1-(1-methanesulfonyl-1-methyl-ethyl)-5-methyl-5,6,8a,9-tetrahydro-8H-7,10-dioxa-2,4,4b-triaza-phenanthrene-3-carboxylic Acid ((R)-2-hydroxy-propyl)-amide], the IC50 fell in the range of 500 to 30000 nM.

`C[C@H](O)CNC(=O)c1nc2c(c(C(C)(C)S(C)(=O)=O)n1)OC[C@@H]1COC[C@@H](C)N21` [A54, (4bS,6R)-1-(1-methanesulfonyl-1-methyl-ethyl)-5-methyl-5,6,8a,9-tetrahydro-8H-7,10-dioxa-2,4,4b-triaza-phenanthrene-3-carboxylic Acid ((S)-2-hydroxy-propyl)-amide]: the IC50 lay within 500 to 30000 nM.
